Assay [1] has as its system biofilm matter in clothing. Description: UV light visualization of fluorescence of suspected biofilm matter in clothing (optical brightener / Calcofluor White). As for the experimental part:
Three UV lamps were used in testing fluorescence in potential biofilms. These included a Lightfe® UV301D lamp providing a beam at 365 nm, a UVBeast V3 lamp operating at 395 nm, and a UV Nova 108-LED UV lamp operating at 395 nm.
In one approach, biofilm candidates were stained using Calcofluor White M2R dye, a fluorescent brightener purchased from Phyto Technology Laboratories (Shawnee Mission, Kansas), CAS No. 4404-43-7. A solution was prepared of 0.074% Calcofluor white in water, and given the name CF1.
In examining fluorescence, it was eventually noted that both an SLR camera and an iPhone camera could not easily capture the fine details of fluorescence when using any of the UV lamps available for this study, probably because the fluorescence, including some background fluorescence, may have interfered with the camera's visible light operations. […] A rubber band was sufficient for holding it in place.

In assay [2] the test system is darkened regions believed to be biofilm remnants in clothing. Description: Visible-light inspection of darkened or yellow regions in clothing. Particulars: shirt CH1; left pit 6 g 2.1% NAC then 1.95 g E3; right pit 2.1 g E3 without NAC; about 20 min, short cycle 30°C Purex. An excerpt: FIG. 10A depicts the left pit of shirt CH1 in visible light after the treatments described previously (as well as the treatment with optical brighter). A dark region 202 is still present that appears to come from within the fabric rather than resting on its surface. It is believed to come from biofilm material such as polysaccharides, proteins, and genetic material, that is capable of adhering to optical brighteners such as CF1 solution. FIG. 10B depicts the same region in UV light using the UVBeast V3 lamp. The dark region 202 of FIG. 10A is now a fluorescent region 204 with the appearance of a purple color, believed to result from Calcofluor White fluorescence couple with the dark matter's blocking of the fluorescence of the shirt material itself. […] The fluorescence in CH1 was bright enough to be detected even with the orange dye of the shirt brightly fluorescing at the same time.

Assay [3] relates to persistent odor (perma-odor) in clothing. Description: Odor evaluation of treated clothing by smelling (odor level on a scale of 0 to 5).

Structures can show the parent of a compound that is named as a salt.

For `O=C(O)CC(O)(CC(=O)O)C(=O)O` [sodium citrate], in assay [1] (shirt RA1, 12% sodium citrate solution 7 g then 1.72 g E3D, about 30°C 3 hours, Lemon Brite), the “fluorescence of previously treated pits” value was “only very slight improvement at best”. In assay [1] (shirt RA1, 12% sodium citrate solution then E3D), the reddish fluorescent zone result was “significant reduction”. Moreover, the “fluorescence of previously untreated spot” value in assay [1] (shirt RA1, 12% sodium citrate solution then E3D, about 30°C 3 hours, also slightly smaller in extent) is recorded as “significantly reduced in brightness”. Further, the “fluorescence of two zones of right pit” value in assay [1] (shirt RA1, each about 2.3 g 12% citrate solution, lower zone also 1.86 g E3D, 40-45°C two hours) is “only little reduction in fluorescence”.

As to `CC(=O)N[C@@H](CS)C(=O)O` [NAC, N-acetyl cysteine], the “darkened regions after wash” value in assay [2] is “perhaps slightly lighter”. In assay [1] (shirt BD1, right pit 2.1% NAC (pH 4) then E3C), the “fluorescent zones after wash” value is on record as “slightly decreased in intensity”. Besides, in assay [1] (shirt BD1, right pit 5.2 g 2.1% NAC pH 6.4 then 3.0 g E3D, left pit water then 3.28 g E3D, about 33°C 2 hours, full cycle 40°C Tide), the “intensity of fluorescent zones after wash” value is listed as “may have decreased slightly”. Further, the “fluorescence after CF1 staining, left pit” value in assay [1] (shirt CH1, 2.1% NAC then E3, wash, Lightfe UV301D 365 nm) is listed as “perhaps weaker than initially seen”. The fluorescence after wash entry in assay [1] (shirt RA1, left pit 4.54 g 2.1% NAC then 10.7 g E3D, right pit 9.2 g E3D only, about 33°C 2 hours, short cycle 30°C Purex) is given as “significant reduction in fluorescence”. In assay [1] (shirt RA1, lower half 2.15% NAC (pH 6.4 and 9.17), upper half water, both CellulaseC 5.6 g and AmylaseA 1.94 g, about 28°C 30 min), the “residual fluorescence, lower versus upper half of left pit” value was “declined more strongly”. Further, the “odor after one work day, shirt AA left pit” value in assay [3] (2.1% NAC and NIC, wash) is given as “remained smelling fresh”. Besides, the “odor after one work day, shirt AA right pit” value in assay [3] (2.1% NAC, NIC and 2 g E2, wash) is “smell again”. Besides, the “owner's report after wash and exercise, shirt WL” value in assay [3] (left pit 4.8 g 2% NAC (pH 7.8), 2 min, 6.5 g NIC, 10 min, 5 g NIC, liquid Tide) is given as “substantial improvement”. Besides, in assay [3] (right pit 2% NAC pH 7.8 then NIC, left pit NIC only, washed), the “odor after heavy exercise, shirt RL” value is “strong odor”. For the same compound, the “odor level after washing and exercise, shirt BL right pit” value in assay [3] (right pit 2.1% NAC, EGCD-2, left pit about 2, scale of 0 to 5) is about 1. The “odor after washing and exercise, shirt WL” value in assay [3] (right pit 2.1% NAC, EGCD-B, NIC) is on record as “very little odor”. Further, the “odor level after washing and exercise, shirt RL” value in assay [3] (right pit 2.1% NAC, EGCD-B, NIC, both pits about the same, scale of 0 to 5) is reported as “about 2”. Further, the “odor following exercise, shirt AB” value in assay [3] (right pit 8.2 g 2.1% NAC, 3.3 g NIC, 5.4 g LPS1, wash) is reported as “smell better in general”. Besides, in assay [3] (right pit 9.1 g 2% NAC pH 7.8, 11 min, 5.8 g NIC, left pit 10 g NIC only), the “residual odor after wash, shirt RL” value was “appeared to have been eliminated”. For the same compound, in assay [3] (shirt BD1 right pit, 5.2 g 2.1% NAC (pH 4) then 2.9 g E3C, Purex, about 3 before, untreated left pit about 1, scale of 1 to 5), the “odor level after washing and drying” value worked out at 0. Further, in assay [3] (shirt CH1, right pit 3.2% NAC solution (2 g outside and inside), 2 min, then NIC 4.83 g, left pit NIC only 7.4 g, 5 min), the “odor after handwash and air drying” value is on record as “smelled better than the left”. Also, the “odor intensity after exercise and 48 hours storage at room temperature” value in assay [3] (shirt CH1, right pit second treatment: 8 ml NAC solution (600 mg effervescent tablet in 100 ml) then 5.3 ml EGCD-A, 20 min, left pit earlier NIC only, 0 to 5 scale) was in the range of 2 to 3. Moreover, the “odor rating after further exercise, left pit” value in assay [3] (shirt CH1 left pit, 10 g 2% NAC solution 10 min, 9 g NIC 15 min, rinse, wash (Bright Blue Moon), scale 0 to 5) is 2 to 3. In addition, the “odor after exercise relative to left pit” value in assay [3] (shirt CH1 right pit, 2% NAC solution, washed, odor level about 5 before) was “significantly reduced”. Also, the “odor level after washing” value in assay [3] (shirt CH1 right pit, 2.4 g pH 3.0 NAC solution, 5 min, short cycle with Bright Blue Moon, scale of 0 to 5) is on record as “about 0.5”. Besides, the “odor after handwash and drying” value in assay [3] (shirt CH1 right pit, 21 g 2% NAC solution, 5.94 g EGCD-A, 10 min, 7 g NIC, about 10 min) is “no odor”. The “odor rating after further exercise, right pit” value in assay [3] (shirt CH1 right pit, earlier NAC, EGCD-A and NIC treatments, scale 0 to 5) is recorded as “about 1”. Besides, the “odor after washing and air drying” value in assay [3] (shirt Dec1 right pit, 1.6 g of 1.8% NAC solution (pH about 2), then standard wash with Bright Blue Moon enzymatic detergent) is “some odor”. Also, the “odor of treated pits after wash” value in assay [3] (shirts AA, AB, AC, 2.1% NAC solution, about 10 min, then NIC (some pits also E2 or LPS1), 15 min, wash with Bright Blue Moon, versus untreated pits or pits without NAC) was “smelled better than before”. Also, in assay [3] (shirts RL, BL, WL right pits, 2.1% NAC solution 12-13.5 g, then EGCD-B or EGCD-2, then NIC (RL, WL), owner's report), the odor after washing entry is recorded as “significantly reduced odor”.
